Test results taken from ChEMBL document CHEMBL1201862, “PubChem BioAssay data set” (2004).
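Five concentrations, 48 hours, 96-well plates. GI50 is the concentration that inhibits growth by half.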 The source made the active and inactive calls. Rule as the data show it: active = GI50 up to about 1.1 µM and inactive = higher.

What was measured:
Assay in all cases: growth of human tumour cells (NCI), 48 h
[1] = system: NCI-H460
[2] = system: CAKI-1
[3] = system: HCT-116
[4] = system: M14
[5] = system: HCT-15
[6] = system: BT-549
[7] = system: HCC 2998
[8] = system: MCF7
[9] = system: SK-OV-3
[10] = system: OVCAR-5
[11] = system: SF-295
[12] = system: HT-29
[13] = system: Malme-3M
[14] = system: SNB-75
[15] = system: HL-60
[16] = system: MOLT-4
[17] = system: SN12C
[18] = system: EKVX
[19] = system: MDA-MB-231
[20] = system: SW-620

| Compound | GI50 [1] | GI50 [2] | GI50 [3] | GI50 [4] | GI50 [5] [µM] | GI50 [6] | GI50 [7] | GI50 [8] | GI50 [9] | GI50 [10] | GI50 [11] | GI50 [12] | GI50 [13] | GI50 [14] | GI50 [15] | GI50 [16] | GI50 [17] | GI50 [18] | GI50 [19] | GI50 [20] |
| --- | --- | --- | --- | --- | --- | --- | --- | --- | --- | --- | --- | --- | --- | --- | --- | --- | --- | --- | --- | --- |
| C=C1C(=O)OC2CC(C)C(C(O)CC(C)O)=CCC12 (stereo not given) | 18.9 µM (inactive) | 4.3 µM (inactive) | 8.71 µM (inactive) | 15.2 µM (inactive) | 14.2 | 13.4 µM (inactive) | 18 µM (inactive) | 13.9 µM (inactive) | 36.7 µM (inactive) | 15 µM (inactive) | 41.2 µM (inactive) | 13.6 µM (inactive) | 7.74 µM (inactive) | 18.3 µM (inactive) | 3.08 µM (inactive) | 14 µM (inactive) | 11.4 µM (inactive) | 12.5 µM (inactive) | 17.8 µM (inactive) | 10.4 µM (inactive) |
| Brc1ccc(/C(N=N/C(=N\Sc2ccccc2)c2ccc(Br)cc2)=N/Sc2ccccc2)cc1 | > 100 µM (inactive) | > 100 µM (inactive) | > 100 µM (inactive) | > 100 µM (inactive) | > 100 | > 100 µM (inactive) | > 100 µM (inactive) | > 100 µM (inactive) | > 100 µM (inactive) | > 100 µM (inactive) | > 100 µM (inactive) | > 100 µM (inactive) | > 100 µM (inactive) | > 71.8 µM (inactive) | > 100 µM (inactive) | > 100 µM (inactive) | > 100 µM (inactive) | > 100 µM (inactive) | > 100 µM (inactive) | > 100 µM (inactive) |
| Cc1cc(C)nc(SCCc2cccc[n+]2C)n1 | > 100 µM (inactive) | > 100 µM (inactive) | > 100 µM (inactive) | > 100 µM (inactive) | > 100 | > 100 µM (inactive) | > 100 µM (inactive) | > 100 µM (inactive) | > 100 µM (inactive) | 36.1 µM (inactive) | > 100 µM (inactive) | > 100 µM (inactive) | > 100 µM (inactive) | > 100 µM (inactive) | > 100 µM (inactive) | > 100 µM (inactive) | > 100 µM (inactive) | 24.9 µM (inactive) | > 100 µM (inactive) | > 100 µM (inactive) |
| CCN(CC)c1ccc(/C=C/C=C2C(=O)NC(=S)NC2=O)cc1 | > 100 µM (inactive) | > 100 µM (inactive) | 30.9 µM (inactive) | 35.4 µM (inactive) | > 38.7 | 13.1 µM (inactive) | 27.2 µM (inactive) | 27 µM (inactive) | > 100 µM (inactive) | > 100 µM (inactive) | > 83.6 µM (inactive) | > 100 µM (inactive) | 16.6 µM (inactive) | 28.9 µM (inactive) | 2.62 µM (inactive) | 4.27 µM (inactive) | 29.9 µM (inactive) | > 62.4 µM (inactive) | 22.9 µM (inactive) | > 33.9 µM (inactive) |
| CC(CN1NC12CCCC2)N1NC12CCCC2 (stereo not given) | > 100 µM (inactive) | > 100 µM (inactive) | > 100 µM (inactive) | > 100 µM (inactive) | > 100 | > 100 µM (inactive) | > 100 µM (inactive) | > 100 µM (inactive) | > 100 µM (inactive) | > 100 µM (inactive) | > 100 µM (inactive) | > 100 µM (inactive) | > 100 µM (inactive) | > 100 µM (inactive) | > 100 µM (inactive) | > 100 µM (inactive) | > 100 µM (inactive) | > 100 µM (inactive) | > 100 µM (inactive) | > 100 µM (inactive) |
| COC(O)C(=O)c1ccc2c(c1)CC1(C2)Cc2cc3c(cc2C1=O)CCC3 (stereo not given) | 27.9 µM (inactive) | 16.9 µM (inactive) | 18.9 µM (inactive) | 19.3 µM (inactive) | 22.2 | 17.4 µM (inactive) | 19.1 µM (inactive) | 17.3 µM (inactive) | 16.7 µM (inactive) | 22 µM (inactive) | 23.7 µM (inactive) | 20.1 µM (inactive) | 16.2 µM (inactive) | 17.9 µM (inactive) | 9.33 µM (inactive) | 15 µM (inactive) | 15.3 µM (inactive) | 19.2 µM (inactive) | 27.7 µM (inactive) | 14.5 µM (inactive) |
| C=C1C(=O)C23CC1C[C@H](OC(C)=O)[C@H]2C1(C)C(OC(C)=O)C[C@H](O)C(C)(C)[C@H]1C(=O)[C@@H]3OC(C)=O (stereo not given in full) | 17.5 µM (inactive) | 2.86 µM (inactive) | 2.22 µM (inactive) | 2.94 µM (inactive) | 4.37 | 2.84 µM (inactive) | 19.2 µM (inactive) | 3.93 µM (inactive) | 18.1 µM (inactive) | 9.51 µM (inactive) | 17.9 µM (inactive) | 4.49 µM (inactive) | 2.17 µM (inactive) | 18.4 µM (inactive) | 2.18 µM (inactive) | 1.21 µM (inactive) | 4.76 µM (inactive) | 6.84 µM (inactive) | 5.7 µM (inactive) | 1.71 µM (inactive) |
| COc1ccc2[nH]c(C(=O)N3CC(CCl)c4ccc(N)cc43)cc2c1 (stereo not given) | 0.0867 µM (active) | 0.0877 µM (active) | 0.164 µM (active) | 0.146 µM (active) | 0.287 | 0.412 µM (active) | 0.14 µM (active) | 0.0689 µM (active) | 0.349 µM (active) | 0.316 µM (active) | 0.201 µM (active) | 0.151 µM (active) | 0.141 µM (active) | 0.178 µM (active) | 0.0593 µM (active) | 0.165 µM (active) | 0.347 µM (active) | 0.368 µM (active) | 0.202 µM (active) | 0.173 µM (active) |
| COc1ccc2c(c1)CCc1cc(OC)ccc1/[N+]([O-])=[N+]\2[O-] | 19.1 µM (inactive) | 17.6 µM (inactive) | 12.4 µM (inactive) | 23 µM (inactive) | 15.6 | 14.8 µM (inactive) | 30.1 µM (inactive) | 9.29 µM (inactive) | 18.7 µM (inactive) | 23.2 µM (inactive) | 19.9 µM (inactive) | 19.6 µM (inactive) | 19.5 µM (inactive) | 17.9 µM (inactive) | 6.11 µM (inactive) | 3.67 µM (inactive) | 16.2 µM (inactive) | 20.8 µM (inactive) | 18.7 µM (inactive) | 7.1 µM (inactive) |
| CCCCCC(=O)OC[n+]1cccc(-c2c(COC(=O)NC(C)C)c(COC(=O)NC(C)C)c3n2CCC3)c1 | 16.6 µM (inactive) | 10.5 µM (inactive) | 45.3 µM (inactive) | 52.1 µM (inactive) | 56.1 | 38.1 µM (inactive) | > 100 µM (inactive) | 31.6 µM (inactive) | > 57.3 µM (inactive) | > 63.5 µM (inactive) | 59 µM (inactive) | 46.9 µM (inactive) | 43.2 µM (inactive) | 33.7 µM (inactive) | 10.2 µM (inactive) | 10.4 µM (inactive) | 30.6 µM (inactive) | > 100 µM (inactive) | 60.4 µM (inactive) | 31.7 µM (inactive) |
| C=CCC1(O)c2ccccc2C(=O)c2c(O)ccc(O)c21 (stereo not given) | 3.52 µM (inactive) | 15.5 µM (inactive) | 5.42 µM (inactive) | 5.01 µM (inactive) | 3.61 | 6.03 µM (inactive) | 3.94 µM (inactive) | 4.11 µM (inactive) | 10.4 µM (inactive) | 17.2 µM (inactive) | 5.07 µM (inactive) | 7.28 µM (inactive) | 3.4 µM (inactive) | 3.82 µM (inactive) | 3.06 µM (inactive) | 1.93 µM (inactive) | 11.6 µM (inactive) | 11.4 µM (inactive) | 6.15 µM (inactive) | 5.79 µM (inactive) |
| CC(=O)n1nc(-c2ccccc2)n(/N=C/c2ccc([N+](=O)[O-])o2)c1=O | 7.06 µM (inactive) | 9.46 µM (inactive) | 1.47 µM (inactive) | 1.94 µM (inactive) | 6.84 | 8.32 µM (inactive) | 4.53 µM (inactive) | 2.58 µM (inactive) | 16.6 µM (inactive) | 1.47 µM (inactive) | 1.66 µM (inactive) | 3.37 µM (inactive) | 6.67 µM (inactive) | 10.2 µM (inactive) | 3.59 µM (inactive) | 3.24 µM (inactive) | 2.13 µM (inactive) | 0.933 µM (active) | 8.34 µM (inactive) | 5.87 µM (inactive) |
| N=C1OC(CN2CCN(c3ccccc3)CC2)CN1C(=S)Nc1ccccc1 (stereo not given) | 63.1 µM (inactive) | 95.5 µM (inactive) | > 100 µM (inactive) | 55 µM (inactive) | 91 | 62.2 µM (inactive) | > 100 µM (inactive) | 37.2 µM (inactive) | > 100 µM (inactive) | 97.5 µM (inactive) | 32.7 µM (inactive) | 49.7 µM (inactive) | 38.9 µM (inactive) | 31 µM (inactive) | 31 µM (inactive) | 44.3 µM (inactive) | > 100 µM (inactive) | 32.6 µM (inactive) | > 100 µM (inactive) | > 100 µM (inactive) |
| O=C(Nc1ccc2ccccc2c1)c1cc2cc(CCl)ccc2oc1=O | > 100 µM (inactive) | > 100 µM (inactive) | > 100 µM (inactive) | > 100 µM (inactive) | > 100 | 44 µM (inactive) | > 100 µM (inactive) | 38.5 µM (inactive) | 38.5 µM (inactive) | > 100 µM (inactive) | 33.3 µM (inactive) | > 100 µM (inactive) | 87.7 µM (inactive) | 15.2 µM (inactive) | > 100 µM (inactive) | > 100 µM (inactive) | > 100 µM (inactive) | > 100 µM (inactive) | 49 µM (inactive) | > 100 µM (inactive) |
